Where a SMILES comes first, the peptide text is derived from it. [ ]: non-standard residue; d: D form. Trp(4-Cl)(βS-Me) = C[C@@H](c1c[nH]c2cccc(Cl)c12)[C@H](N)C(=O)O; Bip(4'-COOH) = N[C@@H](Cc1ccc(-c2ccc(C(=O)O)cc2)cc1)C(=O)O; 1Nal(3S-Me) = C[C@@H](c1cccc2ccccc12)[C@H](N)C(=O)O; Phe(4-COOH) = N[C@@H](Cc1ccc(C(=O)O)cc1)C(=O)O; h3Pal(5-CN) = N#Cc1cncc(CC[C@H](N)C(=O)O)c1; Phe(4-NH2) = Nc1ccc(C[C@H](N)C(=O)O)cc1; Pro(4R-NH2) = N[C@H]1CN[C@H](C(=O)O)C1; 1Nal = N[C@@H](Cc1cccc2ccccc12)C(=O)O; AEF = NCCOc1ccc(C[C@H](N)C(=O)O)cc1; hTyr = N[C@@H](CCc1ccc(O)cc1)C(=O)O; 4Pal = N[C@@H](Cc1ccncc1)C(=O)O; dDab = NCC[C@@H](N)C(=O)O; Orn = NCCC[C@H](N)C(=O)O; dNMeA = CN[C@H](C)C(=O)O; Dab = NCC[C@H](N)C(=O)O; Dap = NC[C@H](N)C(=O)O; Aib = CC(C)(N)C(=O)O

The assay deals with T1, Recombinant human IL-1β (Homo sapiens, UniProt P01584).
T1 construct: purchased BioLegend 579404
T1 sequence (P01584 117-269): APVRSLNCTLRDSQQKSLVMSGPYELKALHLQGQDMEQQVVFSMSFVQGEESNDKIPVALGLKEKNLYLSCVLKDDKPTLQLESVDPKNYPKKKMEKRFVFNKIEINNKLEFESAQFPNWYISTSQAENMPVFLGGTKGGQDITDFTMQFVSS
Briefly: IL-6 assay in MRC5 cells: inhibition of IL-1β induced IL-6 secretion (AlphaLISA). The class given is cell-based. The settings on record: inhibition of IL-1β induced IL-6 secretion in MRC5 cells; read-out: MRC5 IC50. The method, boiled down:
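IL-1β at 2×EC80 in seeding medium (EMEM, 0.025% BSA) preincubated 1 h at ambient temperature with compound, then 3000 MRC5 cells/well added and incubated overnight at 37 °C, 5% CO2. IL-6 in conditioned medium quantified by AlphaLISA; IC50 from 4-parameter logistic fit.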
A general note: Bead proximity is the source of the signal in Alpha formats.
The IC50 is the point on the concentration scale where inhibition reaches its midpoint. As for `CC(=O)NCCOc1ccc(C[C@@H]2NC(=O)[C@H](CCc3ccc(O)cc3)NC(=O)[C@@H](C)N(C)C(=O)[C@H](CN)NC(=O)[C@H](Cc3c[nH]c4ccccc34)NC(=O)[C@H](Cc3ccc(-c4ccc(C(=O)O)cc4)cc3)NC(=O)CNC(=O)[C@@H](C)N(C)C(=O)[C@H](CC(=O)O)NC(=O)[C@H]([C@@H](C)c3cccc4ccccc34)NC(=O)[C@@H]3C[C@@H](N)CN3C(=O)CNC(=O)[C@H](Cc3ccc(C(=O)O)cc3)NC(=O)[C@H](Cc3c[nH]c4ccccc34)NC2=O)cc1` [Example 121] (cyclo([AEF](Ac)W[Phe(4-COOH)]G[Pro(4R-NH2)][1Nal(3S-Me)]D[dNMeA]G[Bip(4'-COOH)]W[Dap][dNMeA][hTyr])), the half-maximal inhibitory concentration (IC50) is 85 pM. Regarding `CC(=O)NCCOc1ccc(C[C@@H]2NC(=O)[C@H](CCc3cncc(C#N)c3)NC(=O)[C@@H](CCN)NC(=O)CNC(=O)[C@H](Cc3c[nH]c4ccccc34)NC(=O)[C@H](Cc3ccc(-c4ccc(C(=O)O)cc4)cc3)NC(=O)CNC(=O)[C@@H](C)N(C)C(=O)[C@H](CC(=O)O)NC(=O)[C@H]([C@@H](C)c3cccc4ccccc34)NC(=O)[C@@H]3C[C@@H](N)CN3C(=O)CNC(=O)[C@H](Cc3ccc(C(=O)O)cc3)NC(=O)[C@H](Cc3c[nH]c4ccccc34)NC2=O)cc1` [Example 122] (cyclo([AEF](Ac)W[Phe(4-COOH)]G[Pro(4R-NH2)][1Nal(3S-Me)]D[dNMeA]G[Bip(4'-COOH)]WG[dDab][h3Pal(5-CN)])), the IC50 came to 24.8 pM. With `CC(=O)NCCOc1ccc(C[C@@H]2NC(=O)[C@H](CCc3ccc(O)cc3)NC(=O)[C@@H](CCN)NC(=O)CNC(=O)[C@H](Cc3c[nH]c4ccccc34)NC(=O)[C@H](Cc3ccc(-c4ccc(C(=O)O)cc4)cc3)NC(=O)CNC(=O)[C@@H](C)N(C)C(=O)[C@H](CC(=O)O)NC(=O)[C@H]([C@@H](C)c3cccc4ccccc34)NC(=O)[C@@H]3C[C@@H](N)CN3C(=O)CNC(=O)[C@H](Cc3ccc(C(=O)O)cc3)NC(=O)[C@H](Cc3c[nH]c4ccccc34)NC2=O)cc1` [Example 123] (cyclo([AEF](Ac)W[Phe(4-COOH)]G[Pro(4R-NH2)][1Nal(3S-Me)]D[dNMeA]G[Bip(4'-COOH)]WG[dDab][hTyr])), the 50% inhibitory concentration (IC50) stood at 45.7 pM. The value for `CC(=O)NCCOc1ccc(C[C@@H]2NC(=O)[C@H](C)NC(=O)[C@@H](C)NC(=O)[C@H](CC(C)C)NC(=O)[C@H](Cc3c[nH]c4ccccc34)NC(=O)[C@H](Cc3ccc(-c4ccc(C(=O)O)cc4)cc3)NC(=O)CNC(=O)[C@@H](C)N(C)C(=O)[C@H](CC(=O)O)NC(=O)[C@H]([C@@H](C)c3cccc4ccccc34)NC(=O)[C@@H]3C[C@@H](N)CN3C(=O)CNC(=O)[C@H](Cc3ccc(C(=O)O)cc3)NC(=O)[C@H](Cc3c[nH]c4ccccc34)NC2=O)cc1` [Example 124] (cyclo([AEF](Ac)W[Phe(4-COOH)]G[Pro(4R-NH2)][1Nal(3S-Me)]D[dNMeA]G[Bip(4'-COOH)]WL[dA]A)) was 636 pM. The value for `CC(=O)NCCOc1ccc(C[C@@H]2NC(=O)[C@H](CCc3ccc(O)cc3)NC(=O)[C@@H](C)NC(=O)[C@H](CC(C)C)NC(=O)[C@H](Cc3c[nH]c4ccccc34)NC(=O)[C@H](Cc3ccc(-c4ccc(C(=O)O)cc4)cc3)NC(=O)CNC(=O)[C@@H](C)N(C)C(=O)[C@H](CC(=O)O)NC(=O)[C@H]([C@@H](C)c3cccc4ccccc34)NC(=O)[C@@H]3C[C@@H](N)CN3C(=O)CNC(=O)[C@H](Cc3ccc(C(=O)O)cc3)NC(=O)[C@H](Cc3c[nH]c4ccccc34)NC2=O)cc1` [Example 125] (cyclo([AEF](Ac)W[Phe(4-COOH)]G[Pro(4R-NH2)][1Nal(3S-Me)]D[dNMeA]G[Bip(4'-COOH)]WL[dA][hTyr])) was 64 pM; that for `CC(=O)NCCOc1ccc(C[C@@H]2NC(=O)[C@H](CCc3ccc(O)cc3)NC(=O)[C@@H](CCN)NC(=O)[C@H](CC(C)C)NC(=O)[C@H](Cc3c[nH]c4ccccc34)NC(=O)[C@H](Cc3ccc(-c4ccc(C(=O)O)cc4)cc3)NC(=O)CNC(=O)[C@@H](C)N(C)C(=O)[C@H](CC(=O)O)NC(=O)[C@H]([C@@H](C)c3cccc4ccccc34)NC(=O)[C@@H]3C[C@@H](N)CN3C(=O)CNC(=O)[C@H](Cc3ccc(C(=O)O)cc3)NC(=O)[C@H](Cc3c[nH]c4ccccc34)NC2=O)cc1` [Example 126] (cyclo([AEF](Ac)W[Phe(4-COOH)]G[Pro(4R-NH2)][1Nal(3S-Me)]D[dNMeA]G[Bip(4'-COOH)]WL[dDab][hTyr])) was 370 pM; that for `CC(=O)NCCOc1ccc(C[C@@H]2NC(=O)[C@H](CCc3ccc(O)cc3)NC(=O)C(C)(C)NC(=O)[C@H](CCCN)NC(=O)[C@H](Cc3c[nH]c4ccccc34)NC(=O)[C@H](Cc3ccc(-c4ccc(C(=O)O)cc4)cc3)NC(=O)CNC(=O)[C@@H](C)N(C)C(=O)[C@H](CC(=O)O)NC(=O)[C@H]([C@@H](C)c3cccc4ccccc34)NC(=O)[C@@H]3C[C@@H](N)CN3C(=O)CNC(=O)[C@H](Cc3ccc(C(=O)O)cc3)NC(=O)[C@H](Cc3c[nH]c4ccccc34)NC2=O)cc1` [Example 127] (cyclo([AEF](Ac)W[Phe(4-COOH)]G[Pro(4R-NH2)][1Nal(3S-Me)]D[dNMeA]G[Bip(4'-COOH)]W[Orn][Aib][hTyr])) was 432 pM.

`CC(=O)NCCOc1ccc(C[C@@H]2NC(=O)[C@H](CCc3ccc(O)cc3)NC(=O)[C@@H](C)NC(=O)[C@H](CO)NC(=O)[C@H](Cc3c[nH]c4ccccc34)NC(=O)[C@H](Cc3ccc(-c4ccc(C(=O)O)cc4)cc3)NC(=O)CNC(=O)[C@@H](C)N(C)C(=O)[C@H](CC(=O)O)NC(=O)[C@H]([C@@H](C)c3cccc4ccccc34)NC(=O)[C@@H]3C[C@@H](N)CN3C(=O)CNC(=O)[C@H](Cc3ccc(C(=O)O)cc3)NC(=O)[C@H](Cc3c[nH]c4ccccc34)NC2=O)cc1` [Example 128] (cyclo([AEF](Ac)W[Phe(4-COOH)]G[Pro(4R-NH2)][1Nal(3S-Me)]D[dNMeA]G[Bip(4'-COOH)]WS[dA][hTyr])): the half-maximal inhibitory concentration (IC50) was determined as 90 pM. The value for `CC(=O)NCCOc1ccc(C[C@@H]2NC(=O)[C@H](CCc3ccc(O)cc3)NC(=O)[C@@H](C)NC(=O)[C@H](CN)NC(=O)[C@H](Cc3c[nH]c4ccccc34)NC(=O)[C@H](Cc3ccc(-c4ccc(C(=O)O)cc4)cc3)NC(=O)CNC(=O)[C@@H](C)N(C)C(=O)[C@H](CC(N)=O)NC(=O)[C@H]([C@@H](C)c3cccc4ccccc34)NC(=O)[C@@H]3C[C@@H](N)CN3C(=O)CNC(=O)[C@H](Cc3ccc(C(=O)O)cc3)NC(=O)[C@H](Cc3c[nH]c4ccccc34)NC2=O)cc1` [Example 129] (cyclo([AEF](Ac)W[Phe(4-COOH)]G[Pro(4R-NH2)][1Nal(3S-Me)]N[dNMeA]G[Bip(4'-COOH)]W[Dap][dA][hTyr])) was 82.8 pM; that for `CC(=O)NCCOc1ccc(C[C@@H]2NC(=O)[C@H](CCc3cncc(C#N)c3)NC(=O)C(C)(C)NC(=O)[C@H](CN)NC(=O)[C@H](Cc3cccc4ccccc34)NC(=O)[C@H](Cc3ccc(-c4ccc(C(=O)O)cc4)cc3)NC(=O)CNC(=O)[C@@H](C)N(C)C(=O)[C@H](CC(=O)O)NC(=O)[C@H]([C@@H](C)c3c[nH]c4cccc(Cl)c34)NC(=O)[C@@H]3C[C@@H](N)CN3C(=O)CNC(=O)[C@H](Cc3ccc(C(=O)O)cc3)NC(=O)[C@H](Cc3c[nH]c4ccccc34)NC2=O)cc1` [Example 130] (cyclo([AEF](Ac)W[Phe(4-COOH)]G[Pro(4R-NH2)][Trp(4-Cl)(βS-Me)]D[dNMeA]G[Bip(4'-COOH)][1Nal][Dap][Aib][h3Pal(5-CN)])) was 114 pM; that for `CC(=O)NCCOc1ccc(C[C@@H]2NC(=O)[C@H](CCc3ccc(O)cc3)NC(=O)[C@@H](C)NC(=O)[C@H](CC(C)C)NC(=O)[C@H](Cc3cccc4ccccc34)NC(=O)[C@H](Cc3ccc(-c4ccc(C(=O)O)cc4)cc3)NC(=O)CNC(=O)[C@@H](C)N(C)C(=O)[C@H](CC(=O)O)NC(=O)[C@H]([C@@H](C)c3c[nH]c4cccc(Cl)c34)NC(=O)[C@@H]3C[C@@H](N)CN3C(=O)CNC(=O)[C@H](Cc3ccc(C(=O)O)cc3)NC(=O)[C@H](Cc3c[nH]c4ccccc34)NC2=O)cc1` [Example 131] (cyclo([AEF](Ac)W[Phe(4-COOH)]G[Pro(4R-NH2)][Trp(4-Cl)(βS-Me)]D[dNMeA]G[Bip(4'-COOH)][1Nal]L[dA][hTyr])) was 49.8 pM.

`CC(=O)NCCOc1ccc(C[C@@H]2NC(=O)CNC(=O)C(C)(C)NC(=O)[C@H](CCCN)NC(=O)[C@H](Cc3cccc4ccccc34)NC(=O)[C@H](Cc3ccc(-c4ccc(C(=O)O)cc4)cc3)NC(=O)CNC(=O)[C@@H](C)N(C)C(=O)[C@H](CC(=O)O)NC(=O)[C@H]([C@@H](C)c3c[nH]c4cccc(Cl)c34)NC(=O)[C@@H]3C[C@@H](N)CN3C(=O)CNC(=O)[C@H](Cc3ccc(C(=O)O)cc3)NC(=O)[C@H](Cc3c[nH]c4ccccc34)NC2=O)cc1` [Example 132] (cyclo([AEF](Ac)W[Phe(4-COOH)]G[Pro(4R-NH2)][Trp(4-Cl)(βS-Me)]D[dNMeA]G[Bip(4'-COOH)][1Nal][Orn][Aib]G)): the IC50 was 370 pM.

Consider `CC(=O)NCCOc1ccc(C[C@@H]2NC(=O)[C@H](Cc3ccc(N)cc3)NC(=O)[C@@H](C)NC(=O)[C@H](CO)NC(=O)[C@H](Cc3cccc4ccccc34)NC(=O)[C@H](Cc3ccc(-c4ccc(C(=O)O)cc4)cc3)NC(=O)CNC(=O)[C@@H](C)N(C)C(=O)[C@H](CC(=O)O)NC(=O)[C@H]([C@@H](C)c3c[nH]c4cccc(Cl)c34)NC(=O)[C@@H]3C[C@@H](N)CN3C(=O)CNC(=O)[C@H](Cc3ccc(C(=O)O)cc3)NC(=O)[C@H](Cc3c[nH]c4ccccc34)NC2=O)cc1` [Example 133] (cyclo([AEF](Ac)W[Phe(4-COOH)]G[Pro(4R-NH2)][Trp(4-Cl)(βS-Me)]D[dNMeA]G[Bip(4'-COOH)][1Nal]S[dA][Phe(4-NH2)])), for which the IC50 came to 766 pM.

With `CC(=O)NCCOc1ccc(C[C@@H]2NC(=O)[C@H](CCc3ccc(O)cc3)NC(=O)[C@@H](C)NC(=O)[C@H](CCN)NC(=O)[C@H](Cc3ccncc3)NC(=O)[C@H](Cc3ccc(-c4ccc(C(=O)O)cc4)cc3)NC(=O)CNC(=O)[C@@H](C)N(C)C(=O)[C@H](CC(=O)O)NC(=O)[C@H]([C@@H](C)c3c[nH]c4cccc(Cl)c34)NC(=O)[C@@H]3C[C@@H](N)CN3C(=O)CNC(=O)[C@H](Cc3ccc(C(=O)O)cc3)NC(=O)[C@H](Cc3c[nH]c4ccccc34)NC2=O)cc1` [Example 134] (cyclo([AEF](Ac)W[Phe(4-COOH)]G[Pro(4R-NH2)][Trp(4-Cl)(βS-Me)]D[dNMeA]G[Bip(4'-COOH)][4Pal][Dab][dA][hTyr])), the half-inhibitory concentration (IC50) is 378 pM.

These data come from patent publication US20230406885A1, “CYCLIC PEPTIDES FOR TRAPPING INTERLEUKIN-1 BETA” (MERCK SHARP & DOHME LLC, priority 2022, published 2023).
